Reference: PubChem BioAssay (NCI)
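Results reflect a 48-hour exposure of cells in 96-well plates to compound at five concentrations. GI50 is the concentration that inhibits growth by half. The concentration for full growth arrest is given as TGI.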

Legend:
Assay in all cases: NCI-60 cell line screen, 48 h
NCI-H460 lung = tested on: NCI-H460 lung
UACC-62 melanoma = tested on: UACC-62 melanoma
SN12C renal = tested on: SN12C renal
T-47D breast = tested on: T-47D breast
RPMI-8226 leukemia = tested on: RPMI-8226 leukemia
UO-31 renal = tested on: UO-31 renal
HS 578T breast = tested on: HS 578T breast
SF-268 CNS = tested on: SF-268 CNS
RXF 393 renal = tested on: RXF 393 renal
IGROV1 ovarian = tested on: IGROV1 ovarian
NCI-H522 lung = tested on: NCI-H522 lung
CCRF-CEM leukemia = tested on: CCRF-CEM leukemia
K-562 leukemia = tested on: K-562 leukemia
MALME-3M melanoma = tested on: MALME-3M melanoma
DU-145 prostate = tested on: DU-145 prostate
SF-539 CNS = tested on: SF-539 CNS
SK-MEL-2 melanoma = tested on: SK-MEL-2 melanoma
EKVX NSCLC = tested on: EKVX NSCLC
OVCAR-8 ovarian = tested on: OVCAR-8 ovarian
BT-549 breast = tested on: BT-549 breast
SNB-75 CNS = tested on: SNB-75 CNS
SR leukemia = tested on: SR leukemia
HCT-116 colon = tested on: HCT-116 colon
HL-60(TB) leukemia = tested on: HL-60(TB) leukemia
NCI-H226 lung = tested on: NCI-H226 lung
HOP-92 NSCLC = tested on: HOP-92 NSCLC
HT29 colon = tested on: HT29 colon
SK-MEL-28 melanoma = tested on: SK-MEL-28 melanoma
UACC-257 melanoma = tested on: UACC-257 melanoma
SK-OV-3 ovarian = tested on: SK-OV-3 ovarian
MCF7 breast = tested on: MCF7 breast
A549 NSCLC = tested on: A549 NSCLC
MDA-MB-435 = tested on: MDA-MB-435
786-0 renal = tested on: 786-0 renal
COLO 205 colon = tested on: COLO 205 colon
MDA-MB-231 breast = tested on: MDA-MB-231 breast
KM12 colon = tested on: KM12 colon
M14 melanoma = tested on: M14 melanoma
OVCAR-5 ovarian = tested on: OVCAR-5 ovarian
TK-10 renal = tested on: TK-10 renal
A498 renal = tested on: A498 renal
SNB-19 CNS = tested on: SNB-19 CNS
PC-3 prostate = tested on: PC-3 prostate
U251 CNS = tested on: U251 CNS
HCT-15 colon = tested on: HCT-15 colon
SF-295 CNS = tested on: SF-295 CNS
HCC-2998 colon = tested on: HCC-2998 colon
ACHN renal = tested on: ACHN renal
SW-620 colon = tested on: SW-620 colon
CAKI-1 renal = tested on: CAKI-1 renal
SK-MEL-5 melanoma = tested on: SK-MEL-5 melanoma
OVCAR-4 ovarian = tested on: OVCAR-4 ovarian
HOP-62 NSCLC = tested on: HOP-62 NSCLC
LOX IMVI melanoma = tested on: LOX IMVI melanoma

In the case of `COc1ccc2c(c1)Oc1nc(N)c(C#N)c(N)c1C2Sc1ccc(C)cc1` (stereo not drawn), the GI50 (NCI-H460 lung) was 1.98 µM, the TGI (NCI-H460 lung) was 3.9 µM and the GI50 (UACC-62 melanoma) was 1.66 µM. For the same compound, the TGI (UACC-62 melanoma) was 3.08 µM, the GI50 (SN12C renal) was 1.59 µM and the TGI (SN12C renal) was 2.94 µM. For the same compound, the GI50 (T-47D breast) was 1.22 µM, the TGI (T-47D breast) was 3.91 µM and the GI50 (RPMI-8226 leukemia) was 2.61 µM. For the same compound, the TGI (RPMI-8226 leukemia) was 7.27 µM, the GI50 (UO-31 renal) was 1.18 µM and the TGI (UO-31 renal) was 2.42 µM. For the same compound, the GI50 (HS 578T breast) was 2.41 µM, the TGI (HS 578T breast) was 5.83 µM and the GI50 (SF-268 CNS) was 1.59 µM. For the same compound, the TGI (SF-268 CNS) was 3.04 µM, the GI50 (RXF 393 renal) was 1.48 µM and the TGI (RXF 393 renal) was 2.81 µM. The GI50 (IGROV1 ovarian) was 1.2 µM, the TGI (IGROV1 ovarian) was 2.49 µM and the GI50 (NCI-H522 lung) was 1.53 µM. The TGI (NCI-H522 lung) was 2.87 µM, the GI50 (CCRF-CEM leukemia) was 0.421 µM and the TGI (CCRF-CEM leukemia) was over 100 µM. The GI50 (K-562 leukemia) was 0.584 µM, the TGI (K-562 leukemia) was over 100 µM and the GI50 (MALME-3M melanoma) was 1.67 µM. It also gave a TGI (MALME-3M melanoma) of 3.12 µM, a GI50 (DU-145 prostate) of 1.87 µM and a TGI (DU-145 prostate) of 3.34 µM. It also gave a GI50 (SF-539 CNS) of 1.61 µM, a TGI (SF-539 CNS) of 2.98 µM and a GI50 (SK-MEL-2 melanoma) of 1.59 µM. It also gave a TGI (SK-MEL-2 melanoma) of 2.94 µM, a GI50 (EKVX NSCLC) of 1.72 µM and a TGI (EKVX NSCLC) of 3.28 µM. The GI50 (OVCAR-8 ovarian) was 1.73 µM, the TGI (OVCAR-8 ovarian) was 3.14 µM and the GI50 (BT-549 breast) was 1.29 µM. The TGI (BT-549 breast) was 2.58 µM, the GI50 (SNB-75 CNS) was 1.4 µM and the TGI (SNB-75 CNS) was 2.7 µM. The GI50 (SR leukemia) was 0.313 µM, the TGI (SR leukemia) was over 100 µM and the GI50 (HCT-116 colon) was 1.75 µM. The TGI (HCT-116 colon) was 3.31 µM, the GI50 (HL-60(TB) leukemia) was 1.72 µM and the TGI (HL-60(TB) leukemia) was 5.26 µM. The GI50 (NCI-H226 lung) was 1.97 µM, the TGI (NCI-H226 lung) was 4.59 µM and the GI50 (HOP-92 NSCLC) was 1.64 µM. It also gave a TGI (HOP-92 NSCLC) of 3.01 µM, a GI50 (HT29 colon) of 1.8 µM and a TGI (HT29 colon) of 3.3 µM. The GI50 (SK-MEL-28 melanoma) was 1.73 µM, the TGI (SK-MEL-28 melanoma) was 3.12 µM and the GI50 (UACC-257 melanoma) was 1.71 µM. The TGI (UACC-257 melanoma) was 3.11 µM, the GI50 (SK-OV-3 ovarian) was 1.9 µM and the TGI (SK-OV-3 ovarian) was 3.39 µM. For the same compound, the GI50 (MCF7 breast) was 1.26 µM, the TGI (MCF7 breast) was 2.9 µM and the GI50 (A549 NSCLC) was 1.77 µM. The TGI (A549 NSCLC) was 3.33 µM, the GI50 (MDA-MB-435) was 1.67 µM and the TGI (MDA-MB-435) was 3.09 µM. The GI50 (786-0 renal) was 1.7 µM, the TGI (786-0 renal) was 3.13 µM and the GI50 (COLO 205 colon) was 1.9 µM. It also gave a TGI (COLO 205 colon) of 3.6 µM, a GI50 (MDA-MB-231 breast) of 1.71 µM and a TGI (MDA-MB-231 breast) of 3.13 µM. It also gave a GI50 (KM12 colon) of 1.74 µM, a TGI (KM12 colon) of 3.15 µM and a GI50 (M14 melanoma) of 1.85 µM. The TGI (M14 melanoma) was 3.36 µM, the GI50 (OVCAR-5 ovarian) was 1.78 µM and the TGI (OVCAR-5 ovarian) was 3.24 µM. The GI50 (TK-10 renal) was 1.83 µM, the TGI (TK-10 renal) was 3.22 µM and the GI50 (A498 renal) was 1.48 µM. For the same compound, the TGI (A498 renal) was 2.8 µM, the GI50 (SNB-19 CNS) was 1.72 µM and the TGI (SNB-19 CNS) was 3.12 µM. It also gave a GI50 (PC-3 prostate) of 1.62 µM, a TGI (PC-3 prostate) of 3.04 µM and a GI50 (U251 CNS) of 1.55 µM. For the same compound, the TGI (U251 CNS) was 2.96 µM, the GI50 (HCT-15 colon) was 1.33 µM and the TGI (HCT-15 colon) was 2.83 µM. It also gave a GI50 (SF-295 CNS) of 1.69 µM, a TGI (SF-295 CNS) of 3.08 µM and a GI50 (HCC-2998 colon) of 1.75 µM. It also gave a TGI (HCC-2998 colon) of 3.26 µM, a GI50 (ACHN renal) of 1.66 µM and a TGI (ACHN renal) of 3.02 µM. The GI50 (SW-620 colon) was 1.77 µM, the TGI (SW-620 colon) was 3.38 µM and the GI50 (CAKI-1 renal) was 1.34 µM. The TGI (CAKI-1 renal) was 2.63 µM, the GI50 (SK-MEL-5 melanoma) was 1.79 µM and the TGI (SK-MEL-5 melanoma) was 3.19 µM. It also gave a GI50 (OVCAR-4 ovarian) of 1.73 µM, a TGI (OVCAR-4 ovarian) of 3.13 µM and a GI50 (HOP-62 NSCLC) of 1.82 µM. The TGI (HOP-62 NSCLC) was 3.31 µM, the GI50 (LOX IMVI melanoma) was 1.41 µM and the TGI (LOX IMVI melanoma) was 2.84 µM.
